# Assay results published in article PMC13042316 (Open journal of immunology, 2011).
# Molecular target: recombinant human MBL (mannose-binding lectin) (Homo sapiens, UniProt P11226)
# Test: ELISA, inhibition of MBL binding to immobilised mannan
# Sequence of recombinant human MBL (mannose-binding lectin) (P11226 21-248): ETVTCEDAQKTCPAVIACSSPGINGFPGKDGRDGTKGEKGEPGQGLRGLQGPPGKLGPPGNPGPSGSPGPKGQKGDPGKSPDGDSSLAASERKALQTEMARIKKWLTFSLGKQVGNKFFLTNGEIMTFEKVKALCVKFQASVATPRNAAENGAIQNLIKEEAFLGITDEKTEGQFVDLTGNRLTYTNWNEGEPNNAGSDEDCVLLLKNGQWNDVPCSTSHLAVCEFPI
structure (smiles),measurement,value
OC[C@H]1O[C@@](CO)(O[C@H]2O[C@H](CO)[C@@H](O)[C@H](O)[C@H]2O)[C@@H](O)[C@@H]1O [sucrose],IC50,> 11 mM
